In US20020142347A1, “Biosensor” (BIOSENSOR ApS, priority 2000, published 2002):
Positions count from the first letter of the chain named. Names and notes keep the numbering of the source. Values joined by “and” are separate entries in the source; they are usually repeats but may differ in a detail not shown here. Equal values may be shown once. Read-outs that look alike come from different tables or passages of the source. One block for each molecule: values may come before it.

Columns and labels:
FACI-24 [1] = target: T1, FACI-24 (Bos taurus, UniProt P07107, M25C); assay: Fluorescence emission change of FACI-24 on titration with CoA and acyl-CoA esters; format: binding, bovine; conditions: for Downshift in emission maximum of FACI-24: emission maximum without ligand 510 nm, excitation 400 nm
T1 construct: made in house; host or cells: E. coli BL21(DE3)pLysS, pET3a vector
T1 sequence (P07107 2-87 M25C): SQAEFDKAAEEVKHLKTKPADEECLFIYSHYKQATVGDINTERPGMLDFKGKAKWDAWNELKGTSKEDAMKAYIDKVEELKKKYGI
Procedure: (§1) Quantitative determination of binding affinities (KD) were performed by isothermal titration micro calorimetry as previously described (Faergeman et. al., 1996; Biochemistry 35, 14118-14126). Qualitative evaluation of relative binding affinities were determined by isoelectrical focusing using the Pharmacia Fast Gel system according to the prescriptions given by the manufacture. Fluorescence emission changes induced by acyl-CoA binding to badan modified protein were determined as follows: 5 μl portions of acyl-CoAs were added from stock solutions disolved in binding buffer, (10 mM Hepes, 150 mM NaCL, 1 mM NaHPO4, pH 7.4) containing 3.4 μM Badan derivatized protein to a 1 ml 3.4 μM solution of the Badan derivatized ACBP in the same buffer. The fluorescence emission was measured on a SPEX FLOUROLOG (Industries Inc, Edison N.J., USA) with excitation at 400 nm and emission scan from 400 nm to 550 nm. The concentration of acyl-CoA in the aqueous phase was determined from the fluorescence emission sensitivities at 495 and 470 nm repectively essentially by the method described by (Grynkiewickz et. al.,1985, J. Biol. Chem. 260, 3440-3450) according to which:
(§2) Fluorescence titration emission spectra from 415 nm to 550 nm (excitation at 400 nm) were performed for CoA, C4:0-, C8:0-, C12:0-, C16:0-, and C20:0-CoA with all four mutated and badan modified proteins.
The emission maximum of FACI-24 without ligand added was 510 nm and titration with CoA, C4:0-, C8:0-, C12:0-, […], C16:0- and C20:0-CoA caused 0, 16, 34, 42, 46 and 46 nm downshift in emission maximum, respectively (results not shown). C16:0-CoA induced a 5,5 fold increase in emission at 464 nm (FIG. 10).
(§3) Titration of FACI with acyl-CoAs was done using a SPEX FLOUROLOG (Industries Inc, Edison N.J., USA) with excitation at 387 nm and emission at 460 nm, with both excitation and emission slits set to 4.5 nm. FACI (0.5-4.5 uM, as indicated) was dissolved in 1.5 ml binding buffer (10 mM HEPES 150 mM NaCl, 5 mM KCl, 1 mM Na2HPO4, pH 7.4) and titrated with a 10 μM acyl-CoA dissolved in binding buffer, with or without FACI added, as indicated. Fluorescence emission values (counts per second) measured without FACI added to the ligand stock solution were corrected for titrand dilution.

FACI-24 [2] = target: T1, FACI-24; assay: Fluorescence titration equilibrium binding analysis of CoA and acyl-CoA esters to FACI-24; set-up: species or system bovine
Procedure: Development of a mathematical expression describing the relationship between acyl-CoA concentration and FACI-24 fluorescence was performed essentially as by Richieri et al 1992, J Biol Chem, 267:23495-23501. However, where ligand binding to ADIFAB induces both a fluorescence intensity increase around 505 nm and a fluorescence intensity decrease around 432 nm, ligand binding to FACI-24 only causes an increase in fluorescence around 460 nm.
Derivatisation of an expression for the fluorescence value as a function of the acyl-coA concentration was done using the Scatchard equation as a starting point: [formula]
which has been used to fit the titration data.
The curves represent the best fit analysis from two independent experiment calculated and normalized as described above. The FACI-24 binding affinity increases dramatically when the acyl-chain length increases from C8 to C10 and C12, a smaller but significant drop in Kd is seen by increasing chain length from C12 to C14. C14 to C18 saturated acyl-CoA esters and C18:1-CoA binds with similar and very high affinities to FACI-24. In >0.1 M salt, FACI-24 binds acyl-CoAs with higher affinity and similar specificity as native unmodified bovine ACBP. The Kd for binding of C12-CoA and C16-CoA to native ACBP is 40 and 2.0 nM, respectively (Fulcery et al Biochemical, 1997, 325:423-428; Færgeman et al 1996, Biochemistry, 35:14118-14126). FACI-24 is highly specific for binding long-chain acyl-CoA esters.
as §3
Up to four parameters were fitted in this way, these were B, representing the point of saturation on the X axis, H, representing the maximum fluorescence, i.e. the fluorescence at saturating concentration of acyl-CoA, L, the minimum fluorescence value, i.e. the fluorescence of FACI-24 alone in buffer, and K, the Kd value lor the acyl-CoA in question. Initial estimates for the fittable parameters were typically: B=1, H=maximum fluorescence value measured, L=minimum fluorescence value measured (at acyl-CoA-concentration=0), and K as judged from the raw data, typically from 0.0001 uM to 0.1 uM for acyl-CoA longer than C10:0-CoA.
For each acyl-CoA at least two titrations and fittings were performed. To consider two or more titrations of the same acyl-CoA together and obtain a Kd value using all these titrations, both axes of the raw data were standardised using the fitted values of B, H and L in this way:
X axis standard=(raw X axis values)/Bfitted
Y axis standard=[(raw Y axis values)−Lfitted]/[Hfitted−Lfitted]
In this way all Y axis values should come to lie between 0 and 1 and the X axis value should be 1 at the point of saturation (FACI-24:acyl-CoA 1:1). Such adjusted data were pooled and fitted using DataFit. Typically, both H and B fitted to values close to 1 and L fitted to values close to 0. K was typically fitted to values somewhere between the two values obtained for the raw data.
This could be overcome by removing B from the fittable parameters list and instead setting it to a constant value of 1 and fitting again. This was typically done for both the raw and the standardised data.

FACI53 [3] = target: T2, FACI53 (Bos taurus, UniProt P07107, A54C); assay: Fluorescence emission change of FACI-53 on titration with CoA and acyl-CoA esters; format: binding, bovine; conditions: for Fluorescence emission maximum of FACI-53 with ligand: 525 nm when no ligand present, excitation 400 nm; for Relative emission of FACI-53 at 495 nm, fold increase: emission at 495 nm
T2 construct: badan (6-bromoacetyl-2-dimethylaminonaphthalene) fluorophore on the introduced Cys-53; made in house; host or cells: E. coli BL21(DE3)pLysS, pET3a vector
T2 sequence (P07107 2-87 A54C): T1 sequence (P07107 2-87 M25C) with C24M, A53C
Procedure: as §1, §2
Titration of FACI-53 dissolved in binding buffer with the above mentioned acyl-CoA esters produced a smooth downward shift in fluorescence emission maximum from 525 nm when no ligand was present to 508, 503, 490, 492, 496 and 514 with increasing concentrations of CoA, C4:0-, C8:0-, C12:0-, C16:0- and C20:0-CoA respectively.

native bovine ACBP = target: T3, native bovine ACBP (Bos taurus, UniProt P07107); conditions: literature, read-out: KD for binding to native bovine ACBP, cited from earlier work
T3 sequence (P07107 1-87): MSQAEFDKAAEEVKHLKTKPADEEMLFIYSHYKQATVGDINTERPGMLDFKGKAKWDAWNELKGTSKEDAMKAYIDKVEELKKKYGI

FACI53 [4] = target: T2, FACI53; assay: Isoelectrical focusing of acyl-CoA binding to FACI53; set-up: species or system bovine; conditions: ligand in four-fold molar excess over protein
Procedure: All the gels were prepared with ligands (1-7) in four-fold molar excess over protein. […] The protein-ligand complex shifted to a pl around 3.8. Legend: 1: Water, 2: CoA-SH, 3: C4-CoA, 4: C8-CoA, 5: C12-CoA, 6: C16-CoA, 7: C20-CoA, 8: Broad pl Calibration Kit (pH 3-10).
as §1, with “The concentration of acyl-CoA in the aqueous phase was determined from the fluorescence emission sensitivities at 495 and 470 nm repectively essentially by the method described by (Grynkiewickz et. al.,1985, J. Biol. Chem. 260, 3440-3450) according to which:” left out

[5] = FACI-24 (1.5 μM) titrated with increasing CoA and acyl-CoA concentration, fitted binding curves, emission 460 nm, read-out: Kd (nM) ± S.E.

Downshift in emission maximum of FACI-24 (FACI-24 [1]): 16 nm
Kd (FACI-24 [2]; [5]): 1500 ± 223 nM
Magnitude of emission of FACI-53, fold increase (FACI53 [3]): 1.8 fold
Fluorescence emission maximum of FACI-53 with ligand (FACI53 [3]): 503 nm
Relative emission of FACI-53 at 495 nm, fold increase (FACI53 [3]): 2.8 fold
Molecule: CCCC(=O)SCCNC(=O)CCNC(=O)[C@H](O)C(C)(C)COP(=O)(O)OP(=O)(O)OC[C@H]1O[C@@H](n2cnc3c(N)ncnc32)[C@H](O)[C@@H]1OP(=O)(O)O [C4:0-CoA]

Downshift in emission maximum of FACI-24 (FACI-24 [1]): 34 nm
Kd (FACI-24 [2]; [5]): 342 ± 31.9 nM
Magnitude of emission of FACI-53, fold increase (FACI53 [3]): 2.9 fold
Fluorescence emission maximum of FACI-53 with ligand (FACI53 [3]): 490 nm
Relative emission of FACI-53 at 495 nm, fold increase (FACI53 [3]): 4.8 fold
Molecule: CCCCCCCC(=O)SCCNC(=O)CCNC(=O)[C@H](O)C(C)(C)COP(=O)(O)OP(=O)(O)OC[C@H]1O[C@@H](n2cnc3c(N)ncnc32)[C@H](O)[C@@H]1OP(=O)(O)O [C8:0-CoA]

Kd (FACI-24 [2]; [5]): 61.8 ± 2.49 nM
Molecule: CCCCCCCCCC(=O)SCCNC(=O)CCNC(=O)[C@H](O)C(C)(C)COP(=O)(O)OP(=O)(O)OC[C@H]1O[C@@H](n2cnc3c(N)ncnc32)[C@H](O)[C@@H]1OP(=O)(O)O [C10:0-CoA]

Kd (FACI-24 [2]; [5]): 1.66 ± 0.26 nM
Kd (FACI-24 [2]; titration equilibrium analysis, >0.1 M salt, read-out: KD for binding to FACI24): 1.7 nM
Molecule: CCCCCCCCCCCCCC(=O)SCCNC(=O)CCNC(=O)[C@H](O)C(C)(C)COP(=O)(O)OP(=O)(O)OC[C@H]1O[C@@H](n2cnc3c(N)ncnc32)[C@H](O)[C@@H]1OP(=O)(O)O [C14:0-CoA]
Kd (native bovine ACBP; isothermal titration microcalorimetry, >0.1 M salt): 16 nM

Kd (FACI-24 [2]; [5]): 1.65 ± 0.83 nM
Molecule: CCCCCCCCCCCCCCCCCC(=O)SCCNC(=O)CCNC(=O)[C@H](O)C(C)(C)COP(=O)(O)OP(=O)(O)OC[C@H]1O[C@@H](n2cnc3c(N)ncnc32)[C@H](O)[C@@H]1OP(=O)(O)O [C18:0-CoA]

Binding to FACI53 by isoelectrical focusing (FACI53 [4]): shown to bind
Downshift in emission maximum of FACI-24 (FACI-24 [1]): 46 nm
Fluorescence response of FACI-53 (FACI53 [3]): hardly responded
Magnitude of emission of FACI-53, fold increase (FACI53 [3]): 0.8 fold
Fluorescence emission maximum of FACI-53 with ligand (FACI53 [3]): 514 nm
Relative emission of FACI-53 at 495 nm, fold increase (FACI53 [3]): 0.8 fold
Molecule: CCCCCCCCCCCCCCCCCCCC(=O)SCCNC(=O)CCNC(=O)[C@H](O)C(C)(C)COP(=O)(O)OP(=O)(O)OC[C@H]1O[C@@H](n2cnc3c(N)ncnc32)[C@H](O)[C@@H]1OP(=O)(O)O [C20:0-CoA]

Fold increase in FACI-24 fluorescence emission at 460 nm (FACI-24 [1]; emission at 460 nm): 3 fold
Downshift in emission maximum of FACI-24 (FACI-24 [1]): 0 nm
Kd (FACI-24 [2]; [5]): 2450 ± 249 nM
Kd (FACI-24 [2]; read-out: Kd for binding to FACI-24): 2500 nM and 2000 nM
Magnitude of emission of FACI-53, fold increase (FACI53 [3]): 1.1 fold
Fluorescence emission maximum of FACI-53 with ligand (FACI53 [3]): 508 nm
Relative emission of FACI-53 at 495 nm, fold increase (FACI53 [3]): 1.5 fold
Fluorescence response of FACI-53 (FACI53 [3]; listed as CoA): hardly responded
Molecule: CC(C)(COP(=O)(O)OP(=O)(O)OC[C@H]1O[C@@H](n2cnc3c(N)ncnc32)[C@H](O)[C@@H]1OP(=O)(O)O)[C@@H](O)C(=O)NCCC(=O)NCCS [CoASH, Coenzyme A]
Kd (native bovine ACBP): 2000 nM
Fluorescence response of FACI-24 (FACI-24 [1]): Neither FACI24 or FACI53 respond significantly
Fluorescence response of FACI-53 (FACI53 [3]; listed as free CoA): Neither FACI24 or FACI53 respond significantly

Kd (FACI-24 [2]; [5]): 0.59 ± 0.19 nM
Molecule: C18:1-CoA

Emission maximum of FACI53 on titration with ligand (FACI53 [3]; FIG. 3): 487 nm
Fluorescence emission maximum of FACI-53, no ligand present (FACI53 [3]; no ligand): 525 nm
B1: FACI-53: badan derivative of A53C-bovine ACBP (Fluorescent Acyl-CoA Indicator 53) (conjugate, UniProt P07107 2-87, looked up, variant A53C)
Acyl-CoA-binding protein: T1 sequence (P07107 2-87 M25C) with C24M, A53C
modifications: badan label

Emission maximum of FACI24 on titration with ligand (FACI-24 [1]; FIG. 2): 465 nm
Emission maximum of FACI-24 without ligand added (FACI-24 [1]; no ligand): 510 nm
B2: FACI-24: badan derivative of M24C-bovine ACBP (Fluorescent modified Acyl-CoA Indicator 24) (conjugate, UniProt P07107 2-87, looked up, variant M24C)
Acyl-CoA-binding protein: T1 sequence (P07107 2-87 M25C)
modifications: badan label
